Measurements as given in patent US12011475B2, “Polypeptide, polypeptide fragment, derivative thereof, and applications thereof” (CHENGDU HUITAI BIOMEDICINE CO., LTD., priority 2017, dated 2024).
Square brackets hold non-standard residues; d marks the D form. Primed or numbered codes have the meaning given here. Ends that are not written are not given here. PEG2′ = not defined here

Experiments:
[1] = test system: rat with pulmonary fibrosis induced by bleomycin; assay: Lung coefficient, bleomycin rat model (Examples 2-3); format: in vivo; conditions: vs bleomycin group; 2.5 mg/kg peptide + 3 mg/kg bleomycin intratracheal, simultaneously; p<0.05; FIG. 1
Method: (§1) The rats were weighed before administration, intramuscularly injected with 65 mg/kg Zoletil anesthetic solution. After the rats entered the stage III anesthesia, the experimental rats were fixated in the lateral decubitus. Gavage needle size 12 was inserted into rat trachea through oral cavity along the glottis to instill with drug. The experimental animals were fed normally from the 1st day to the 7th day after intratracheal administration, and were weighed every day with feed and water ad libitum. […]
The rats in Example 2 were weighed and sacrificed by anesthesia overdose. […] After the wet weight of the whole lung was weighted by the electronic balance, the lung coefficient was calculated according to the formula, lung coefficient=lung mass (mg)/body weight (g) (the result is shown in FIG. 1).

[2] = test system: rat with pulmonary fibrosis induced by bleomycin; assay: HE staining and alveolitis score of rat lung tissue (Example 4); format: in vivo; conditions: 2.5 mg/kg peptide + 3 mg/kg bleomycin intratracheal; for inflammatory pathology score (degree of alveolitis, grade 0 to 3): vs BLM group, p<0.01, FIG. 3; for pathological changes in lung tissue (HE staining): vs model group, FIG. 2
Method: (§2) The rats were weighed before administration, intramuscularly injected with 65 mg/kg Zoletil anesthetic solution. After the rats entered the stage III anesthesia, the experimental rats were fixated in the lateral decubitus. Gavage needle size 12 was inserted into rat trachea through oral cavity along the glottis to instill with drug. The experimental animals were fed normally from the 1st day to the 7th day after intratracheal administration, and were weighed every day with feed and water ad libitum.
(§3) The rats in blank control group were received no treatment after anesthesia; the rats in model group (bleomycin) were intratracheally instilled with bleomycin (3 mg/kg); the rats in PBS control group were intratracheally instilled with an equal volume of sterile PBS buffer (0.01 M, pH=9.5); the rats in polypeptide control group were intratracheally instilled with 2.5 mg/kg of the polypeptide N2 (the solvent was 0.01 M, pH=9.5 PBS buffer); the rats in N2 treatment group were intratracheally instilled with 2.5 mg/kg of the polypeptide N2 and 3 mg/kg of bleomycin simultaneously, the rats in N3 treatment group were intratracheally instilled with 2.5 mg/kg of the polypeptide N3 and 3 mg/kg of bleomycin simultaneously.
The lung tissue of the rats of Example 2 was taken, fixed with 4% paraformaldehyde and embedded in paraffin. The wax block embedded the lung tissue was sectioned along the largest cross section. Pathological changes in lung tissue were observed using hematoxylin-eosin (HE) staining. Pathological changes in lung tissue were observed under a light microscope (low magnification) at a magnification of 100 times (the result is shown in FIG. 2).
According to the method provided by Szapie, et al., the degree of alveolitis was graded according to the range of lesions and could be divided into 0 to 3 grades, corresponding to 0 to 3 points. The evaluation indexes for the degree of alveolitis are as follows: grade 0, no alveolitis; grade 1, mild alveolitis, manifested as a slight increase in alveolar septum, infiltration of monocytes, near the pleura or localized, with a lesion range of less than 20% without alveolar structural damage; grade 2, moderate alveolitis, the lesion ranges from 20% to 50%, relatively severe near the pleura; grade 3, severe alveolitis, diffusely distributed, the lesion range is more than 50%, with pulmonary parenchymal lesion occasionally.

[3] = test system: rat with pulmonary fibrosis induced by bleomycin; assay: Inflammatory cells in bronchoalveolar lavage fluid, Wright-Giemsa staining (Example 5); format: in vivo; conditions: vs bleomycin group; 2.5 mg/kg peptide + 3 mg/kg bleomycin intratracheal; p<0.05; FIG. 4
Method: as §1
Bronchoalveolar lavage fluid was collected, and […] by centrifugation. […] The counting method was: the number of macrophages, lymphocytes, and neutrophils was calculated according to the total number of inflammatory cells based on the respective proportion of macrophages, lymphocytes, and neutrophils in 100 intact cells (the result is shown in FIG. 4).

[4] = test system: Fibronectin, Collagen I and Collagen III; assay: Western blot of extracellular matrix protein in lung tissue homogenate (Example 6); format: in vivo, rat; conditions: vs bleomycin group, 2.5 mg/kg peptide intratracheal; for levels of Fibronectin, Collagen I and Collagen III proteins (grayscale value): p<0.05, FIG. 6; for intensities of the expression bands of Fibronectin, Collagen I and Collagen III in lung tissue: GAPDH internal reference, FIG. 5
Method: as §2, §3
The rat lung tissue of Example 2 was taken, and homogenized using RIPA lysate (100 mg of lung tissue corresponding to 1 mL of lysate), centrifuged and the supernatant was taken, and then the protein concentration was determined by BCA method. Equal amounts of protein samples were taken and Western blot experiment was performed using anti-GAPDH, anti-Fibronectin, anti-Collagen I and anti-Collagen III antibodies (the result is shown in FIG. 5).
The grayscale value of each band was detected and analyzed using Image pro plus 6.0 image analysis software (the result is shown in FIG. 6). […] The detection of grayscale value supported the above-mentioned description.

[5] = test system: rat with pulmonary fibrosis induced by bleomycin; assay: Hydroxyproline content in lung tissue homogenate, alkali hydrolysis kit (Example 7); format: in vivo; conditions: vs bleomycin group; 2.5 mg/kg peptide intratracheal; p<0.05; FIG. 7
Method: as §1
The rats of Example 2 were taken, and the hydroxyproline content in lung tissue homogenate was detected using Boster Hydroxyproline Alkali Hydrolysis Assay Kit (Cat. No. A030) (the result is shown in FIG. 7).

[6] = test system: TGF-β/Smad signaling pathway; assay: Western blot of Smad protein in lung tissue homogenate (Example 8); format: in vivo, rat; conditions: vs bleomycin group, 2.5 mg/kg peptide intratracheal; for levels of p-Smad2 and p-Smad3 proteins (grayscale value): p<0.05, FIG. 9; for intensities of the expression bands of p-Smad2 and p-Smad3 in lung tissue: GAPDH internal reference, FIG. 8
Method: as §2, §3
The rat lung tissue of Example 2 was taken, and the tissue was homogenized using RIPA lysate (100 mg of lung tissue corresponding to 1 mL of lysate), centrifuged and the supernatant was taken, and then the protein concentration was determined by BCA method. Equal amounts of protein samples were taken and Western blot experiment was performed using anti-GAPDH, anti-p-Smad2 and anti-p-Smad3 antibodies (the result is shown in FIG. 8).
The grayscale value of each band was detected and analyzed using Image pro plus 6.0 image analysis software (the result is shown in FIG. 9). […] The detection of grayscale value supported the above-mentioned description.

active TGF-β = assay: Active TGF-β in lung tissue by ELISA (Examples 9-10); format: in vivo, rat; conditions: vs model group; 6 mg/kg peptide + 3 mg/kg bleomycin intratracheal; p<0.05; FIG. 10
Method: (§4) The rats were weighed before administration, intramuscular injection of Zoletil anesthetic solution, the dose was 65 mg/kg. After the rats entered the stage III anesthesia, the experimental rats were bond in the incline lateral decubitus. A size 12 gavage needle was inserted into rat trachea through oral cavity along the glottis to infuse the drug. The experimental animals were fed normally from the 1st day to the 14th day after intratracheal administration, and were weighed regularly every day without restriction of feed or drinking water. […]
The rat lung tissue in the model group, the control group and the N4 treatment group of Example 9 was taken, and homogenized using RIPA lysate (100 mg of lung tissue corresponding to 1 mL of lysate), centrifuged and the supernatant was taken, and then the protein concentration was determined by BCA method. Equal amounts of protein samples were taken and the active TGF-β content was measured by enzyme-linked immunosorbent assay ELISA (Promega, Cat. No. G7591) (the result is shown in FIG. 10), and one-way ANOVA was used for biostatistical analysis.

TGF-β signaling pathway = assay: ctgf, Collagen I and Collagen III in lung tissue by RT-qPCR (Example 11); format: in vivo, rat; conditions: vs model group; 6 mg/kg peptide + 3 mg/kg bleomycin intratracheal; 18S RNA reference; p<0.05; FIG. 11
Method: as §4
The rat lung tissue in the model group, the control group and the N4 treatment group of Example 9 was taken. […] After obtaining cDNA using reverse transcription, fluorescence quantitative PCR (qPCR) kit (Applied Biosystems, Cat. No. 4319413E) was used to detect the expression levels of connective tissue growth factor ctgf (forward primer: 5′-[…]-3′, reverse primer: 5′-[…]-3′) downstream of the TGF-β pathway, Collagen I (forward primer: 5′-TGCCGATGTCGCTATCCA-3′, reverse primer: 5′-[…]-3′) and Collagen III (forward primer: 5′-[…]-3′, reverse primer: 5′-[…]-3′). […]

[7] = test system: rat with pulmonary fibrosis induced by bleomycin; assay: Hydroxyproline content in lung tissue homogenate, acid hydrolysis (Example 12); format: in vivo; conditions: vs model group; 6 mg/kg peptide + 3 mg/kg bleomycin intratracheal; p<0.05; FIG. 12
Method: The rats were weighed before administration, intramuscular injection of Zoletil anesthetic solution, the dose was 65 mg/kg. After the rats entered the stage III anesthesia, the experimental rats were bond in the incline lateral decubitus. A size 12 gavage needle was inserted into rat trachea through oral cavity along the glottis to infuse the drug. The experimental animals were fed normally from the 1st day to the 14th day after intratracheal administration, and were weighed regularly every day without restriction of feed or drinking water.
The rats in model group were intratracheally instilled with bleomycin (3 mg/kg); the rats in control group were intratracheally instilled with an equal volume of saline; the rats in treatment groups were intratracheally instilled with bleomycin (3 mg/kg) and corresponding therapeutic drug (6 mg/kg) simultaneously.
The lung tissue in the model group, the control group and the N4 treatment group of Example 9 was taken, and the hydroxyproline content in the lung tissue homogenate was detected using BioVision Hydroxyproline Acid Hydrolysis Assay Kit (Cat. No. K555-100) (the result is shown in FIG. 12), and one-way ANOVA was used for biostatistical analysis.

Substance | lung coefficients of the left lung, the right lung and the whole lung [1] | inflammatory pathology score (degree of alveolitis, grade 0 to 3) [2] | pathological changes in lung tissue (HE staining) [2] | number of macrophages, heteromorphic nuclear cells and lymphocytes in bronchoalveolar lavage fluid [3] | levels of Fibronectin, Collagen I and Collagen III proteins (grayscale value) [4] | intensities of the expression bands of Fibronectin, Collagen I and Collagen III in lung tissue [4] | hydroxyproline content in lung tissue [5] | levels of p-Smad2 and p-Smad3 proteins (grayscale value) [6] | intensities of the expression bands of p-Smad2 and p-Smad3 in lung tissue [6] | content of active TGF-β in the lung tissue (active TGF-β) | gene expression levels of ctgf, collagen I and collagen III in lung tissue (TGF-β signaling pathway) | hydroxyproline content in lung tissue [7]
(PEG2)TyrArgValArgPheLeuAlaLysGluAsnValThrGlnAspAlaGluAsp ([PEG2′]YRVRFLAKENVTQDAED; listed as Homo sapiens) [N3] | decreased significantly | significant alleviation | a small amount of inflammatory cell infiltration in the interstitial | decreased significantly | decreased significantly | almost returned to the level of the control group | decreased significantly | decreased significantly | almost returned to the level of the control group |  |  | 
RFLAKENVTQD [N4] |  |  |  |  |  |  |  |  |  | decreased significantly | decreased significantly | decreased significantly
YRVRFLAKENVTQDAED [N2] | decreased significantly | significant alleviation | a small amount of inflammatory cell infiltration in the interstitial | decreased significantly | decreased significantly | almost returned to the level of the control group | decreased significantly | decreased significantly | almost returned to the level of the control group |  |  | 
